The source of these data is patent US20030207813A1, “Retroviral protease inhibitor combinations” (priority 1995, published 2003).

One assay has as its system HIV-1 strain SF-162. As to the kind of experiment: Acute infectivity assay in PHA-activated donor lymphocytes, isolate SF162. The format is cell-based. The note with it: Human immunodeficiency virus 1, Lymphocyte. Here is the method: (§1) Approximately 3×10^7 cells are activated for 48 hours with about 3-5 μg/ml PHA in RPMI continuing 10% fetal bovine serum and IL-2 (10 U/ml). Quantitated virus stocks are added to the activated lymphocyte suspension at a multiplicity of infection of about 0.001-0.01. The cell-virus suspension is incubated at 37° C. for 2 hours to allow virus absorption. The residual virus inoculum is removed by centrifugation and the cells are resuspended in RPMI containing 10% FBS and 10 U/ml IL-2. These infected cells are added to the test-article diluted in complete tissue culture medium from a stock (10 mg/ml) in DMSO in 96 well microtiter plates to give about 5×10^5 cells per well per 200 μl. Infected, untreated cells and cells treated with DMSO alone (0.1%) or either AZT or DDI were used as controls. The cultures were examined for syncytia formation on days 7 and 11 post-infection or the supernants tested for reverse transcriptase activity or p24 antigen.
(§2) RF represents the HIV-1 strain HIV-LRF and RFR represents a mixture of resistant strains obtained by selection of RF against the compound of Example 1. RFR comprises a mixture of viral strains having protease genotypes of G48V (14/40 clones); G48V, V82A (18/40 clones); G48V, L90S (2/40 clones); G48V, 154T, V82A (1/40 clones); G48M (1/40 clones); G48V, Q61H (1/40 clones); V13I, G48V (1/40 clones); G48V, F53L, V82A (1/40 clones); and G48V, V82A, C95Y (1/40 clones). RFR2 represents a mixture of resistant strains obtained by cloning RFR by three rounds of growth at limiting dilution. RFR2 comprises a mixture of viral strains having protease genotypes of G48V, V82A (13/15 clones); G17E, G48V, V82A (1/15 clones); and G48V, V82A, N37D, N88D (1/15 clones). RFRR represents a mixture of resistant strains obtained by selection of RF against the compounds of Examples 1 and 2 and then cloning by three rounds of growth at limiting dilution. RFRR comprises a mixture of viral strains having protease genotypes of G48V, 154T, L63P, V82A (7/9 clones); G48V, 154T, L63P, V82A, N88S (1/9 clones); and G48V, 154T, L63P, G73M, V82A (1/9 clones). SF162 represents the HIV-1 strain SF-162 and SF162R represents a mixture of resistant strains obtained by selection of SF162 against the compound of Example 1. SF162R comprises a mixture of viral strains having protease genotypes of M461, F53L, L63P, A71V, N88D (2/3 clones); and M46I, F53L, L63P, A71V, N88D, Q92R (1/3 clones). 89-959 represents the HIV-1 strain 89-959 and 89-959R represents a mixture of resistant strains obtained by selection of 89-959 against the compound of Example 2. 89-959R comprises a mixture of viral strains having protease genotypes of N88S (4/5 clones); and D25N, T26A, D30N, D37N, R41K, G73D, R87K, N88S (1/4 clones). NL4 represents the HIV-1 strain HIV-1NL4-3. NL4(G48V) represents a strain having a synthetically generated site-directed mutation in the protease from glycine to valine at amino acid position number 48. NL4(I84V) represents a strain having a synthetically generated site-directed mutation in the protease from isoleucine to valine at amino acid position number 84. NL4(R8Q,M46I) represents a strain having synthetically generated site-directed mutations in the protease from arginine to glutamine at amino acid position number 8 and methionine to isoleucine at amino acid position number 46. NL4(P22-538) represents a mixture of resistant strains obtained by selection of HIV-1NL4-3 against the compound of Example 10 after 22 passages comprising protease genotypes M46I, L63P, A71V, V82F, I84V (4/10); M46I, L63P, V82F, I84V (3/10); and M46I, A71V, V82F, I84V (3/10). NL4(P37-538) represents resistant strains obtained by selection of HIV-1NL4-3 against the compound of Example 10 after 37 passages comprising protease genotype M46I, L63P, A71V, 184A. NL4(538/524) represents resistant strains obtained by selection of NL4(P22-538) against the compound of Example 5 after 24 passages comprising protease genotype M46I, L63P, A71V, 184A. […]

For another assay, the system named is HIV-1 strain 89-959. As to the kind of experiment: Acute infectivity assay in PHA-activated donor lymphocytes, isolate 89-959. The format is cell-based. The note with it: Human immunodeficiency virus 1, Lymphocyte, Table 3, footnote marks show values of the same experiment, read-out: Virus Isolate (EC50 ng/mL) 89-959. The method, then: as §1, §2
Assay [1] has as its system 89-959R (resistant strains selected from 89-959 against Example 2). Description: Acute infectivity assay in PHA-activated donor lymphocytes, resistant isolate 89-959R. The format is cell-based, HIV-1. The note with it: Human immunodeficiency virus 1, Lymphocyte, read-out: Virus Isolate (EC50 ng/mL) 89-959R. Here is the method:
as §1, §2

Setting [2] is: Table 1, read-out: Virus Isolate (EC50 ng/mL) SF162.
[3] abbreviates: Table 2, read-out: Virus Isolate (EC50 ng/mL) SF162.

Values after ≈ are worked out from the molar mass of the structure shown. Where two headings read alike, the source gives them in different places.

As to `CC(C)(C)NC(=O)[C@@H]1CC2CCCC[C@@H]2CN1C[C@@H](O)[C@H](Cc1ccccc1)NC(=O)[C@H](CC(N)=O)NC(=O)c1ccc2ccccc2n1` (stereo in doubt) [Example 6, N-tert-Butyl decahydro-2-[2(R)-hydroxy-4-phenyl-3(S)-[[N-(2-quinolylcarbonyl)-L-asparaginyl]amino]butyl]-(4aR,8aS)-isoquinoline-3(S)-carboxamide], the EC50 stood at 2 ng/mL (≈ 0.00298 µM) in the assay with HIV-1 strain SF-162 (setting [2]); 4 ng/mL (≈ 0.00596 µM) in the assay with HIV-1 strain 89-959; 6 ng/mL (≈ 0.00894 µM) in assay [1] (Table 3, (experiment ‡)).
`CC(C)(C)NC(=O)[C@@H]1CN(Cc2cccnc2)CCN1C[C@@H](O)C[C@@H](Cc1ccccc1)C(=O)N[C@H]1c2ccccc2C[C@H]1O` [Example 5, N-(2(R)-Hydroxy-1(S)-indanyl)-2(R)-phenylmethyl-4(S)-hydroxy-5-(1-(4-(3-pyridylmethyl)-2(S)-N′-(t-butylcarboxamido)-piperazinyl))-pentaneamide]: the EC50 in the assay with HIV-1 strain SF-162 (setting [2]) turned out to be 4 ng/mL (≈ 0.00652 µM); in the assay with HIV-1 strain 89-959 it was 36 ng/mL (≈ 0.0587 µM); in assay [1] (Table 3, (experiment ‡)), 38 ng/mL (≈ 0.0619 µM); in assay [1] (Table 3, experiments † and §) it was 5 ng/mL (≈ 0.00815 µM).
On to `CNCC(=O)N[C@H](C(=O)N[C@@H](Cc1ccccc1)[C@H](O)CN(CCC(C)C)C(=O)NC(C)(C)C)C(C)(C)C` [Example 2, (2R,3S)-3-(N-methylaminoacetyl-L-tert-butylglycinyl)amino-1-(N-isoamyl-N-(tert-butylcarbamoyl))amino-4-phenyl-2-butanol], for which the EC50 with HIV-1 strain SF-162 (setting [2]) was 2 ng/mL (≈ 0.00375 µM); in the assay with HIV-1 strain 89-959, 100 ng/mL (≈ 0.187 µM); in assay [1] (Table 3, (experiment ‡)), 872 ng/mL (≈ 1.63 µM); in assay [1] (Table 3, experiments † and §) it was 395 ng/mL (≈ 0.74 µM).
Take `CC(C)CN(C[C@@H](O)[C@H](Cc1ccccc1)NC(=O)[C@H](CC(N)=O)NC(=O)c1ccc2ccccc2n1)S(=O)(=O)NC(C)(C)C` [Example 8, N-[3-[N^2-[N^1-(1,1-dimethylethyl)aminosulfonyl]-N^2-(2-methylpropyl)amino]-2R-hydroxy-1S-(phenylmethyl)propyl]-2S-[(2-quinolinylcarbonyl)amino]butanediamide]: the EC50 in the assay with HIV-1 strain SF-162 (setting [3]) turned out to be 1 ng/mL (≈ 0.00156 µM); in the assay on HIV-1 strain 89-959, 12 ng/mL (≈ 0.0187 µM); in assay [1] (Table 3, experiments † and §) it was 11 ng/mL (≈ 0.0172 µM).
Regarding `CC(C)CN(C[C@@H](O)[C@H](Cc1ccccc1)NC(=O)[C@H](CC(N)=O)NC(=O)c1ccc2ccccc2n1)C(=O)NC(C)(C)C` (relative stereo) [Example 1, [1S-[1R*(R*),2S*]]-N^1-[3-[[[(1,1-dimethylethyl)amino]carbonyl])2-methylpropyl)amino]-2-hydroxy-1-(phenylmethyl)propyl]-2-[(2-quinolinylcarbonyl)amino]-butanediamide], the EC50 with HIV-1 strain SF-162 (setting [2]) was determined as 31 ng/mL (≈ 0.0513 µM); in the assay with HIV-1 strain SF-162 (setting [3]), 2 ng/mL (≈ 0.00331 µM); with HIV-1 strain 89-959, 96 ng/mL (≈ 0.159 µM); in assay [1] (Table 3, (experiment ‡)) it was 37 ng/mL (≈ 0.0612 µM); in assay [1] (Table 3, experiments † and §), 5 ng/mL (≈ 0.00827 µM).
Consider `CC(C)CCN(C[C@@H](O)[C@H](Cc1ccccc1)NC(=O)[C@H](CC(N)=O)NC(=O)c1ccc2ccccc2n1)C(=O)NC(C)(C)C` (relative stereo) [Example 7, [1S-[1R*(R*),2S*]]-N^1-[3-[[[(1,1-dimethylethyl)amino]carbonyl](3-methylbutyl)amino]-2-hydroxy-1-(phenylmethyl)propyl]-2-[(2-quinolinylcarbonyl)amino]-butanediamide], for which the EC50 in the assay with HIV-1 strain SF-162 (setting [3]) worked out at 1 ng/mL (≈ 0.00162 µM); in the assay on HIV-1 strain 89-959 it was 13 ng/mL (≈ 0.021 µM); in assay [1] (Table 3, experiments † and §) it was 12 ng/mL (≈ 0.0194 µM).
